Drawing on ChEMBL document CHEMBL5614426 (J Med Chem, 2024), this text covers IC50 and inhibition for 36 compounds.

For assay [1], the target named is T1, Histone-lysine N-methyltransferase NSD2 (Homo sapiens, UniProt O96028).
T1 sequence (O96028 whole entry): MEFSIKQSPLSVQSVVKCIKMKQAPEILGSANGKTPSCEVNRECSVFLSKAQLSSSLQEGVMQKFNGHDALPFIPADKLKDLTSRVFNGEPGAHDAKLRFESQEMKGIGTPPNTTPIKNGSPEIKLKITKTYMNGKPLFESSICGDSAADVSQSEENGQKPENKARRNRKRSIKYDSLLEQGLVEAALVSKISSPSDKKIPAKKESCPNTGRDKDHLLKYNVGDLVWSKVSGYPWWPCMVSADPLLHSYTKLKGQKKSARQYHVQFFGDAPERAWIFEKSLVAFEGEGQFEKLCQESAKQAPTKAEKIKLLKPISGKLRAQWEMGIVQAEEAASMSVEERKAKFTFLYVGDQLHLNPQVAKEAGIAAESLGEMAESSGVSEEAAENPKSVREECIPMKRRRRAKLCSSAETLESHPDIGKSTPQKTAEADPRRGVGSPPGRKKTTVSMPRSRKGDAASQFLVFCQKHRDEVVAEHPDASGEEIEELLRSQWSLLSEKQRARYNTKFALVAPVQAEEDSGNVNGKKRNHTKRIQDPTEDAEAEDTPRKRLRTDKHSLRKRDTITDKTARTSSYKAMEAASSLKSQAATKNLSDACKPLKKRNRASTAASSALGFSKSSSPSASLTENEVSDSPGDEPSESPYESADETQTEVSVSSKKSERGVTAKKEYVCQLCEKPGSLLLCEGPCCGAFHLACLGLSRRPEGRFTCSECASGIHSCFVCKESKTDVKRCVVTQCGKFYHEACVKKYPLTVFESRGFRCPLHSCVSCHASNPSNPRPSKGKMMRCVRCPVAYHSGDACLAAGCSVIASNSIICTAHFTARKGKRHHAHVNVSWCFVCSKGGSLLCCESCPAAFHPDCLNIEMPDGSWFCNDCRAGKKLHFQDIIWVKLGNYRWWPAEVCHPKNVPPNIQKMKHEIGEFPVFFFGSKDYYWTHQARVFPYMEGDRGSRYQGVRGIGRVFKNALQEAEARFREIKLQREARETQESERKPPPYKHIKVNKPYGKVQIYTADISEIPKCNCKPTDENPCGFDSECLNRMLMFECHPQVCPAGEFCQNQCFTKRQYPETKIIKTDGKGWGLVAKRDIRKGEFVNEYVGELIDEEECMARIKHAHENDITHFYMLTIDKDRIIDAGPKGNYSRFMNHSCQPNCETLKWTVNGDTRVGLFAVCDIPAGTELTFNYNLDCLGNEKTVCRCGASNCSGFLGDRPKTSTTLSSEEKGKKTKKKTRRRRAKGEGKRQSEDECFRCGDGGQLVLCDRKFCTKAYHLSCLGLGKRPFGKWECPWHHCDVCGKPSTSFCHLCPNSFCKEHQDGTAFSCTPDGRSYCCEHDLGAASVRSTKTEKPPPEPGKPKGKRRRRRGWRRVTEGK
Description: Inhibition of recombinant human NSD2 (941 to 1240 residues) using unmethylated histone H3 as substrate incubated for 40 mins in the presence of SAM and nucleosomes by AlphaLISA method.

For assay [2], the target named is T2, Histone-lysine N-methyltransferase EHMT2 (Homo sapiens) (UniProt Q96KQ7).
T2 sequence (whole entry): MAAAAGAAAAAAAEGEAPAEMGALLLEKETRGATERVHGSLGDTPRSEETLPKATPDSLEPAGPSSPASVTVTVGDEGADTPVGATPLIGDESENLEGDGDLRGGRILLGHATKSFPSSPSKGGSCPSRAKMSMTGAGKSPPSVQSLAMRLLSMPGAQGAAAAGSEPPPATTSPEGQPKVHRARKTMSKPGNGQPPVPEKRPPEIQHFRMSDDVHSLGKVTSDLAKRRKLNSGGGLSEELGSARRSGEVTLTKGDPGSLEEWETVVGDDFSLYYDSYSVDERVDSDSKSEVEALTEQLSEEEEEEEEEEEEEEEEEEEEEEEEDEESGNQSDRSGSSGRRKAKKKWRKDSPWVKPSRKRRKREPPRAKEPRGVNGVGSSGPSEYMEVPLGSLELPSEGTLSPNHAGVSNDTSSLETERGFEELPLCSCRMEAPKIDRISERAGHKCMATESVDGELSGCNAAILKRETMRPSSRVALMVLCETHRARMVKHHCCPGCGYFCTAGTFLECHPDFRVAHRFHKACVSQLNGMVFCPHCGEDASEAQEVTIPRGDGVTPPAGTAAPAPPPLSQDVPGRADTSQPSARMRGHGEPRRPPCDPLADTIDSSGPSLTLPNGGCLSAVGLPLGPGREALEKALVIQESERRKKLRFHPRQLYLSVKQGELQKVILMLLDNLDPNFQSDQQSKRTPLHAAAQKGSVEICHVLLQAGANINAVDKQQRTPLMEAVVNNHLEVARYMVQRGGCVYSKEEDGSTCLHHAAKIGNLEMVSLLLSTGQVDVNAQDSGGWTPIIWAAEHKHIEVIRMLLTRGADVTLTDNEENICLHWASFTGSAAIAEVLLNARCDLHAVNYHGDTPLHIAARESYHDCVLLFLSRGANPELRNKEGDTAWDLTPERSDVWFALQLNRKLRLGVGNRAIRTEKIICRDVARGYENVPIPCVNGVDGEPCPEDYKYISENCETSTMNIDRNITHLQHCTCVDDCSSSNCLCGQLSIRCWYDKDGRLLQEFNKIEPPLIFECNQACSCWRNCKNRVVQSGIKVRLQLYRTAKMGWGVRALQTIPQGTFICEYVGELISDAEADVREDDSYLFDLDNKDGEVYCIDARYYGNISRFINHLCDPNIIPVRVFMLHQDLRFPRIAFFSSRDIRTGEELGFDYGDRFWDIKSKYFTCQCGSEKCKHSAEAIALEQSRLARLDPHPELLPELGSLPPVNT
Description: Inhibition of G9a (unknown origin) at 10 uM by AlphaLISA assay relative to control.

Assay [3] addresses T2, Histone-lysine N-methyltransferase EHMT2 (Homo sapiens). In words: Inhibition of G9a (unknown origin) at 1 uM by AlphaLISA assay relative to control. In general terms: Alpha assays give light when donor and acceptor beads are brought close together.

SMILES strings stand for the structures.

As usually defined, the IC50 is the concentration that inhibits the measured activity by half. `COc1cc2c(NC3CCN(C(C)C)CC3)nc(C#N)nc2cc1O`: the IC50 in assay [1] came to 60 nM. Consider `COc1cc2nc(C#N)nc(NC3CCCC3)c2cc1OC`, for which the IC50 in assay [1] was above 5000 nM. One may read the inhibition as the relative decrease from the control value, in per cent. For the compound `COc1cc2nc(CN)nc(NC3CCN(Cc4ccccc4)CC3)c2cc1OC`, the inhibition in assay [2] worked out at 95.4%; in assay [3] it was 34.8%. Besides, the IC50 in assay [1] came out at 1410 nM. As for `COc1cc2nc(C#N)nc(NC3CCOCC3)c2cc1OC`, in assay [1], the IC50 turned out to be 4900 nM. Regarding `COc1cc2nc(C#N)nc(OC3CCN(C)CC3)c2cc1OC`, the half-inhibitory concentration (IC50) in assay [1] turned out to be 2520 nM. With `CNc1nc(NC2CCN(Cc3ccccc3)CC2)c2cc(OC)c(OC)cc2n1`, the inhibition in assay [2] was determined as 99.4%; in assay [3], 99.5%. For the same compound, the IC50 in assay [1] turned out to be 1510 nM.

As to `COc1cc2c(NC3CCN(C(C)C)CC3)nc(C#N)nc2cc1OCCCN1CCC(F)(F)C1`, in assay [1], the IC50 is 38 nM. Turning to `COc1cc2nc(N3CCOCC3)nc(NC3CCN(Cc4ccccc4)CC3)c2cc1OC`, the results for the inhibition in assay [2] and in assay [3] were 98.5% and 98.7%, respectively. The IC50 in assay [1] was above 5000 nM. Take `COc1cc2c(NC3CCN(C(C)C)CC3)nc(C#N)nc2cc1OCCN1CCOCC1`: the IC50 in assay [1] is 44 nM.

Consider `CCCN1CCC(Nc2nc(C#N)nc3cc(OC)c(OC)cc23)CC1`, for which the 50% inhibitory concentration (IC50) in assay [1] was 569 nM. As to `COc1cc2nc(C#N)nc(NC3CCN(C4CCCCC4)CC3)c2cc1OC`, in assay [1], the IC50 worked out at 1200 nM. Regarding `COc1cc2nc(-c3ccccc3)nc(NC3CCN(Cc4ccccc4)CC3)c2cc1OC`, the figures for the inhibition in assay [2] and in assay [3] were 99.2% and 29.9%, respectively. Further, in assay [1], the IC50 is above 5000 nM.

Take `COc1cc2nc(C#N)nc(NC3CCN(C4CC4)CC3)c2cc1OC`: in assay [1], the concentration for half-maximal inhibition (IC50) is 45 nM. On the same count and under the same terms, the value for `COc1cc2nc(C#N)nc(NCC3CCN(C)CC3)c2cc1OC` was 2430 nM; that for `COc1ccc2nc(C#N)nc(NC3CCN(C(C)C)CC3)c2c1` was 85 nM. For the compound `COc1cc2nc(C#N)nc(NC3CCN(Cc4ccccc4)CC3)c2cc1OC`, the inhibition in assay [2] was found to be 5.6%; in assay [3] it was 2.8%. For `CCN1CCC(Nc2nc(C#N)nc3cc(OC)c(OC)cc23)CC1`, in assay [1], the 50% inhibitory concentration (IC50) came out at 1510 nM.

As to `COc1cc2nc(N3CCCCC3)nc(NC3CCN(Cc4ccccc4)CC3)c2cc1OC`, the inhibition in assay [2] worked out at 99.2%; in assay [3], 98%. In addition, the half-inhibitory concentration (IC50) in assay [1] was above 5000 nM. `COc1cc2ncnc(NC3CCN(Cc4ccccc4)CC3)c2cc1OC`: the inhibition in assay [2] turned out to be 82.4%; in assay [3], 27.4%. The IC50 in assay [1] was 1450 nM. Consider `COc1cc2nc(C#N)nc(NC3CCN(C)CC3)c2cc1OC`, for which, in assay [1], the concentration for half-maximal inhibition (IC50) worked out at 204 nM.

For `COc1cc2nc(C#N)nc(NC3CCN(C(C)=O)CC3)c2cc1OC`, the IC50 in assay [1] was 2780 nM.

For `COc1cc2nc(N(C)C)nc(NC3CCN(Cc4ccccc4)CC3)c2cc1OC`, the inhibition in assay [2] worked out at 99.1%; in assay [3], 99.6%. In addition, in assay [1], the IC50 was 1510 nM. As for `COc1cc2c(NC3CCN(C(C)C)CC3)nc(C#N)nc2cc1OCCCN1CCC(F)(F)CC1`, the IC50 in assay [1] was 32 nM. On the same count and under the same terms, then `COc1cc2nc(C#N)nc(N3CCN(C)CC3)c2cc1OC`, with 4300 nM; and `COc1cc2nc(C#N)nc(NC3CCN(C(=O)OC(C)(C)C)CC3)c2cc1OC`, with 3330 nM. Regarding `COc1cc2nc(N)nc(NC3CCN(Cc4ccccc4)CC3)c2cc1OC`, the inhibition in assay [2] was 99.6%; in assay [3], 99.1%. Besides, the half-inhibitory concentration (IC50) in assay [1] was found to be 1550 nM. In the case of `CC#CC(=O)NC12CC(NC3=C(Cl)C(=O)c4ncccc4C3=O)(C1)C2`, the 50% inhibitory concentration (IC50) in assay [1] stood at 243 nM. On the same count and under the same terms, the value for `COc1cc2nc(C#N)nc(N(C)C3CCN(C)CC3)c2cc1OC` was 3760 nM; that for `COc1ccc2c(NC3CCN(C(C)C)CC3)nc(C#N)nc2c1` was 271 nM. With `COc1cc2nc(C#N)nc(NC3CCCCC3)c2cc1OC`, in assay [1], the half-inhibitory concentration (IC50) was found to be 4570 nM. Regarding `COCCOc1cc2nc(C#N)nc(NC3CCN(C(C)C)CC3)c2cc1OC`, in assay [1], the IC50 turned out to be 29 nM. Turning to `COc1cc2nc(C#N)nc(NC3CCNCC3)c2cc1OC`, the concentration for half-maximal inhibition (IC50) in assay [1] was 1410 nM. As to `COc1cc2nc(C#N)nc(Nc3ccc(N4CCN(C)CC4)cc3)c2cc1OC`, in assay [1], the IC50 came out at 3150 nM.

Consider `COc1cc2nc(N3CCCN(C)CC3)nc(NC3CCN(Cc4ccccc4)CC3)c2cc1OC`, for which the inhibition is 98.8% in assay [2] and 98.3% in assay [3]. Also, in assay [1], the IC50 is 1730 nM. `CC(C)N1CCC(Nc2nc(C#N)nc3ccccc23)CC1`: in assay [1], the half-inhibitory concentration (IC50) was found to be 377 nM. As for `COc1cc2c(NC3CCN(C(C)C)CC3)nc(C#N)nc2cc1OCc1ccccc1`, in assay [1], the half-maximal inhibitory concentration (IC50) was determined as 49 nM.
